Measurements as given in PMC5218480 (PLoS ONE, 2017).

System: MV-4-11 cells
Assay: Gene expression microarray analysis (Affymetrix PrimeView) and GSEA
Assay type: cell-based, human
Set-up: RFU PODN (11730768_x_at) / Fold change /veh PODN (11730768_x_at) / RFU LINC00158 (11744669_a_at) / Fold change /veh LINC00158 (11744669_a_at) / RFU DUSP10 (11751237_a_at) / Fold change /veh DUSP10 (11751237_a_at) / RFU ID3 (11757404_x_at) / Fold change /veh ID3 (11757404_x_at) / RFU PLEKHG5 (11737974_s_at) / Fold change /veh PLEKHG5 (11737974_s_at) / RFU LRRC4B (11730491_at) / Fold change /veh LRRC4B (11730491_at) / RFU GIMAP4 (11747438_a_at) / Fold change /veh GIMAP4 (11747438_a_at) / RFU KRT8 (11758183_x_at) / Fold change /veh KRT8 (11758183_x_at) / RFU CNN1 (11734310_a_at) / Fold change /veh CNN1 (11734310_a_at) / RFU VPS37D (11726825_at) / Fold change /veh VPS37D (11726825_at) / RFU C10orf10 (11716522_x_at) / Fold change /veh C10orf10 (11716522_x_at) / RFU KIR2DL2 /// KIR2DL4 /// KIR2DL5A /// KIR2DL5B /// KIR2DS1 /// KIR2DS2 /// KIR2DS3 /// KIR2DS4 /// KIR3DL3 /// KIR3DL3 /// KIR3DS1 (11738374_at) / Fold change /veh KIR2DL2 /// KIR2DL4 /// KIR2DL5A /// KIR2DL5B /// KIR2DS1 /// KIR2DS2 /// KIR2DS3 /// KIR2DS4 /// KIR3DL3 /// KIR3DL3 /// KIR3DS1 (11738374_at) / RFU C1QL1 (11718748_at) / Fold change /veh C1QL1 (11718748_at) / RFU TMPRSS4 (11747572_a_at) / Fold change /veh TMPRSS4 (11747572_a_at) / RFU HAMP (11756126_x_at) / Fold change /veh HAMP (11756126_x_at) / RFU RNFT2 (11725882_a_at) / Fold change /veh RNFT2 (11725882_a_at) / RFU NR4A2 (11747474_a_at) / Fold change /veh NR4A2 (11747474_a_at) / RFU ABCC12 (11746883_a_at) / Fold change /veh ABCC12 (11746883_a_at) / RFU TMEM136 (11760407_x_at) / Fold change /veh TMEM136 (11760407_x_at) / RFU CLDN22 /// WWC2 (11732394_at) / Fold change /veh CLDN22 /// WWC2 (11732394_at) / RFU HLA-DPB1 (11760878_x_at) / Fold change /veh HLA-DPB1 (11760878_x_at) / RFU SPINT1 (11716480_a_at) / Fold change /veh SPINT1 (11716480_a_at) / RFU GAP43 (11754022_s_at) / Fold change /veh GAP43 (11754022_s_at) / RFU A4GNT (11735810_at) / Fold change /veh A4GNT (11735810_at) / RFU PRB3 (11715151_x_at) / Fold change /veh PRB3 (11715151_x_at) / RFU TUBB4B (11761932_at) / Fold change /veh TUBB4B (11761932_at) / RFU CAPN14 (11732068_a_at) / Fold change /veh CAPN14 (11732068_a_at) / RFU TMCC2 (11721928_a_at) / Fold change /veh TMCC2 (11721928_a_at) / RFU IRGQ (11745062_a_at) / Fold change /veh IRGQ (11745062_a_at) / RFU FAM174B (11720279_a_at) / Fold change /veh FAM174B (11720279_a_at) / RFU TMPRSS4 (11748680_a_at) / Fold change /veh TMPRSS4 (11748680_a_at) / RFU FAM212B (11763350_a_at) / Fold change /veh FAM212B (11763350_a_at) / RFU PLEKHG5 (11743358_a_at) / Fold change /veh PLEKHG5 (11743358_a_at) / RFU ZSCAN30 (11745921_a_at) / Fold change /veh ZSCAN30 (11745921_a_at) / RFU CMKLR1 (11741424_a_at) / Fold change /veh CMKLR1 (11741424_a_at) / RFU LOC101060620 /// MAPK8IP1 (11723275_at) / Fold change /veh LOC101060620 /// MAPK8IP1 (11723275_at) / RFU SPTSSB (11747773_x_at) / Fold change /veh SPTSSB (11747773_x_at) / RFU PRSS12 (11739890_at) / Fold change /veh PRSS12 (11739890_at) / RFU BIN1 (11741810_x_at) / Fold change /veh BIN1 (11741810_x_at) / RFU WNT11 (11732464_a_at) / Fold change /veh WNT11 (11732464_a_at) / RFU C10orf10 (11716521_a_at) / Fold change /veh C10orf10 (11716521_a_at) / RFU C5orf56 (11738089_at) / Fold change /veh C5orf56 (11738089_at) / RFU CYB561 (11721691_x_at) / Fold change /veh CYB561 (11721691_x_at) / RFU ANKRD19P (11752326_a_at) / Fold change /veh ANKRD19P (11752326_a_at) / RFU OR2T12 /// OR2T33 /// OR2T8 (11738714_s_at) / Fold change /veh OR2T12 /// OR2T33 /// OR2T8 (11738714_s_at) / RFU VCAN (11748164_a_at) / Fold change /veh VCAN (11748164_a_at) / RFU JSRP1 (11732532_at) / Fold change /veh JSRP1 (11732532_at) / RFU KRTAP10-11 (11738290_x_at) / Fold change /veh KRTAP10-11 (11738290_x_at) / RFU MYO3A (11730013_a_at) / Fold change /veh MYO3A (11730013_a_at) / RFU EBF3 (11725865_a_at) / Fold change /veh EBF3 (11725865_a_at) / RFU CAMK2N1 (11719241_x_at) / Fold change /veh CAMK2N1 (11719241_x_at) / RFU C5orf56 (11738088_a_at) / Fold change /veh C5orf56 (11738088_a_at) / RFU OLFML3 (11715873_a_at) / Fold change /veh OLFML3 (11715873_a_at) / RFU LOC100653217 /// NTM (11731650_a_at) / Fold change /veh LOC100653217 /// NTM (11731650_a_at) / RFU MAPK11 (11762145_a_at) / Fold change /veh MAPK11 (11762145_a_at) / RFU FIZ1 (11724087_x_at) / Fold change /veh FIZ1 (11724087_x_at) / RFU OASL (11726364_x_at) / Fold change /veh OASL (11726364_x_at) / RFU SOX15 (11748057_x_at) / Fold change /veh SOX15 (11748057_x_at) / RFU CD79A (11719716_a_at) / Fold change /veh CD79A (11719716_a_at) / RFU HIST1H1D (11736915_at) / Fold change /veh HIST1H1D (11736915_at) / RFU CASKIN2 (11723855_a_at) / Fold change /veh CASKIN2 (11723855_a_at) / RFU LOC730098 (11760151_x_at) / Fold change /veh LOC730098 (11760151_x_at) / RFU OR4N2 (11742367_at) / Fold change /veh OR4N2 (11742367_at) / RFU PRRT2 (11749266_a_at) / Fold change /veh PRRT2 (11749266_a_at) / RFU SNX32 (11753110_a_at) / Fold change /veh SNX32 (11753110_a_at) / RFU CDHR5 (11726645_a_at) / Fold change /veh CDHR5 (11726645_a_at) / RFU RCAN1 (11760418_a_at) / Fold change /veh RCAN1 (11760418_a_at) / RFU FAM167A (11723789_a_at) / Fold change /veh FAM167A (11723789_a_at) / RFU FAM26E (11764081_at) / Fold change /veh FAM26E (11764081_at) / RFU ISYNA1 (11749810_s_at) / Fold change /veh ISYNA1 (11749810_s_at) / RFU ACY1 (11761880_at) / Fold change /veh ACY1 (11761880_at) / RFU 11764098_at / Fold change /veh 11764098_at / RFU SAMD14 (11745864_x_at) / Fold change /veh SAMD14 (11745864_x_at) / RFU NPB (11741838_a_at) / Fold change /veh NPB (11741838_a_at) / RFU TMPRSS6 (11731388_a_at) / Fold change /veh TMPRSS6 (11731388_a_at) / RFU KRTAP10-2 (11738614_at) / Fold change /veh KRTAP10-2 (11738614_at) / RFU ARHGAP8 /// PRR5-ARHGAP8 (11727945_x_at) / Fold change /veh ARHGAP8 /// PRR5-ARHGAP8 (11727945_x_at) / RFU KRTAP5-7 /// NADSYN1 (11734609_at) / Fold change /veh KRTAP5-7 /// NADSYN1 (11734609_at) / RFU RASL12 (11751679_a_at) / Fold change /veh RASL12 (11751679_a_at) / RFU CDKN2B (11736163_a_at) / Fold change /veh CDKN2B (11736163_a_at) / RFU PRF1 (11729649_at) / Fold change /veh PRF1 (11729649_at) / RFU, ZNF638 /// ZNF638-IT1 / Fold change vs veh, ZNF638 /// ZNF638-IT1 / RFU, PANK3 / Fold change vs veh, PANK3 / RFU, SH3YL1 / Fold change vs veh, SH3YL1 / RFU, ZEB2 / Fold change vs veh, ZEB2 / RFU, NRIP1 / Fold change vs veh, NRIP1 / RFU, PTTG1IP / Fold change vs veh, PTTG1IP / RFU, CAPN2 / Fold change vs veh, CAPN2 / RFU, MED14 / Fold change vs veh, MED14 / RFU, SNORA58 / Fold change vs veh, SNORA58 / RFU, C1orf63 / Fold change vs veh, C1orf63 / RFU, LRRFIP1 / Fold change vs veh, LRRFIP1 / RFU, NDUFAF7 / Fold change vs veh, NDUFAF7 / RFU, SLC12A2 / Fold change vs veh, SLC12A2 / RFU, IBTK / Fold change vs veh, IBTK / RFU, ESF1 / Fold change vs veh, ESF1 / Fold change vs veh, TMEM50B / RFU, TAOK1 / Fold change vs veh, TAOK1 / RFU, ACBD3 / Fold change vs veh, ACBD3 / RFU, TMA16 / Fold change vs veh, TMA16 / RFU, RWDD3 / Fold change vs veh, RWDD3 / RFU, BCAT1 / Fold change vs veh, BCAT1 / RFU, EDEM3 / Fold change vs veh, EDEM3 / RFU, TMEM33 / Fold change vs veh, TMEM33 / RFU, WDR75 / Fold change vs veh, WDR75 / RFU, AHCTF1 / Fold change vs veh, AHCTF1 / RFU, TFRC / Fold change vs veh, TFRC / RFU, ZDHHC17 / Fold change vs veh, ZDHHC17 / RFU, NOM1 / Fold change vs veh, NOM1 / RFU, ARL8B / Fold change vs veh, ARL8B / RFU, ZBTB11 / Fold change vs veh, ZBTB11 / RFU, TAMM41 / Fold change vs veh, TAMM41 / RFU, KIAA1704 /// LOC100996395 / Fold change vs veh, KIAA1704 /// LOC100996395 / RFU, ING1 / Fold change vs veh, ING1 / RFU, TRMT61B / Fold change vs veh, TRMT61B / RFU, FUBP3 / Fold change vs veh, FUBP3 / RFU, TP53 / Fold change vs veh, TP53 / RFU, TNKS2 / Fold change vs veh, TNKS2 / RFU, ZFP14 / Fold change vs veh, ZFP14 / RFU, ACTR2 / Fold change vs veh, ACTR2 / RFU, PPP3R1 / Fold change vs veh, PPP3R1 / RFU, PIK3R1 / Fold change vs veh, PIK3R1 / RFU, HNRNPA1 / Fold change vs veh, HNRNPA1 / RFU, RNF170 / Fold change vs veh, RNF170 / RFU, ZNF28 / Fold change vs veh, ZNF28 / RFU, RNGTT / Fold change vs veh, RNGTT / RFU, OGT / Fold change vs veh, OGT / RFU, BRD1 / Fold change vs veh, BRD1 / RFU, MARS / Fold change vs veh, MARS / RFU, ZNF655 / Fold change vs veh, ZNF655 / RFU, FAHD1 / Fold change vs veh, FAHD1 / RFU, BDP1 / Fold change vs veh, BDP1 / RFU, LRRCC1 / Fold change vs veh, LRRCC1 / RFU, ARID1A / Fold change vs veh, ARID1A / RFU, ZNF146 / Fold change vs veh, ZNF146 / RFU, ZNF330 / Fold change vs veh, ZNF330 / RFU, GPN3 / Fold change vs veh, GPN3 / RFU, C9orf123 / Fold change vs veh, C9orf123 / RFU, N4BP2L2 / Fold change vs veh, N4BP2L2 / RFU, ARFIP1 / Fold change vs veh, ARFIP1 / RFU, FAM179B / Fold change vs veh, FAM179B / RFU, BCL10 / Fold change vs veh, BCL10 / RFU, UHRF1BP1L / Fold change vs veh, UHRF1BP1L / RFU, BET1 / Fold change vs veh, BET1 / RFU, CNOT2 / Fold change vs veh, CNOT2 / RFU, ZNF268 / Fold change vs veh, ZNF268 / Fold change vs veh, ZNF507 / RFU, DGCR2 / Fold change vs veh, DGCR2 / RFU, WDSUB1 / Fold change vs veh, WDSUB1 / Fold change vs veh, HSP90B1 /// MIR3652 / RFU, ADSS / Fold change vs veh, ADSS / RFU, GK / Fold change vs veh, GK / RFU, ZNF148 / Fold change vs veh, ZNF148 / RFU, TAF9 / Fold change vs veh, TAF9 / RFU, SLC1A5 / Fold change vs veh, SLC1A5 / RFU, SLMO2 / Fold change vs veh, SLMO2 / RFU, ABCC4 / Fold change vs veh, ABCC4 / RFU, LOC101060439 /// RAP1B / Fold change vs veh, LOC101060439 /// RAP1B / RFU, RFX7 / Fold change vs veh, RFX7 / RFU, GTPBP10 / Fold change vs veh, GTPBP10 / RFU, CNEP1R1 / Fold change vs veh, CNEP1R1 / RFU, BIVM-ERCC5 /// ERCC5 / Fold change vs veh, BIVM-ERCC5 /// ERCC5 / RFU, ILF3 / Fold change vs veh, ILF3 / RFU 11762660_at / Fold change /veh 11762660_at / RFU VCAN (11757783_s_at) / Fold change /veh VCAN (11757783_s_at) / RFU DDX43 (11728927_at) / Fold change /veh DDX43 (11728927_at) / RFU KRT8 (11758188_x_at) / Fold change /veh KRT8 (11758188_x_at) / RFU NKD1 (11759106_at) / Fold change /veh NKD1 (11759106_at) / RFU SRD5A1 (11742802_a_at) / Fold change /veh SRD5A1 (11742802_a_at) / RFU TPSAB1 /// TPSB2 (11721975_s_at) / Fold change /veh TPSAB1 /// TPSB2 (11721975_s_at) / RFU GSTM3 (11746129_a_at) / Fold change /veh GSTM3 (11746129_a_at) / RFU IL23R (11737362_x_at) / Fold change /veh IL23R (11737362_x_at) / RFU TMEM51 (11727254_a_at) / Fold change /veh TMEM51 (11727254_a_at) / RFU PIWIL2 (11732686_x_at) / Fold change /veh PIWIL2 (11732686_x_at) / RFU ORM1 (11744905_x_at) / Fold change /veh ORM1 (11744905_x_at) / RFU CCDC152 (11743942_at) / Fold change /veh CCDC152 (11743942_at) / RFU ECM1 (11717891_a_at) / Fold change /veh ECM1 (11717891_a_at) / RFU IL23R (11748794_a_at) / Fold change /veh IL23R (11748794_a_at) / RFU TNFAIP8L3 (11732012_x_at) / Fold change /veh TNFAIP8L3 (11732012_x_at) / RFU MBOAT4 (11741988_at) / Fold change /veh MBOAT4 (11741988_at) / RFU 11764193_at / Fold change /veh 11764193_at / RFU TMEM53 (11763286_at) / Fold change /veh TMEM53 (11763286_at) / RFU MAGEB2 (11727129_at) / Fold change /veh MAGEB2 (11727129_at) / RFU TMEM200A (11744735_a_at) / Fold change /veh TMEM200A (11744735_a_at) / RFU CCDC152 (11751479_a_at) / Fold change /veh CCDC152 (11751479_a_at) / RFU FAM211A (11726209_a_at) / Fold change /veh FAM211A (11726209_a_at) / RFU RGS16 (11746705_a_at) / Fold change /veh RGS16 (11746705_a_at) / RFU VCAN (11755009_s_at) / Fold change /veh VCAN (11755009_s_at) / RFU RHOB (11743442_s_at) / Fold change /veh RHOB (11743442_s_at) / RFU RGS16 (11720943_a_at) / Fold change /veh RGS16 (11720943_a_at) / RFU RGS16 (11720944_at) / Fold change /veh RGS16 (11720944_at) / RFU, VPS4B / Fold change vs veh, VPS4B / RFU, CREB1 / Fold change vs veh, CREB1 / RFU, DNAJC13 / Fold change vs veh, DNAJC13 / RFU, GNAQ / Fold change vs veh, GNAQ / RFU, CDK5R1 / Fold change vs veh, CDK5R1 / RFU, ZRANB3 / Fold change vs veh, ZRANB3 / RFU, CUL4A / Fold change vs veh, CUL4A / RFU, CCNY / Fold change vs veh, CCNY / RFU, UFL1 / Fold change vs veh, UFL1 / RFU, COG3 / Fold change vs veh, COG3 / RFU, DIAPH2 / Fold change vs veh, DIAPH2 / RFU, SKA2 / Fold change vs veh, SKA2 / RFU, AFF3 / Fold change vs veh, AFF3 / RFU, LMF1 / Fold change vs veh, LMF1 / RFU, IPO11 / Fold change vs veh, IPO11 / RFU, DFFB / Fold change vs veh, DFFB / RFU, FOXP1 / Fold change vs veh, FOXP1 / RFU, CARD8 / Fold change vs veh, CARD8 / RFU, STRN3 / Fold change vs veh, STRN3 / RFU, ADK / Fold change vs veh, ADK / RFU, RASSF2 / Fold change vs veh, RASSF2 / RFU, WIPF1 / Fold change vs veh, WIPF1 / RFU, LARP1B / Fold change vs veh, LARP1B / RFU, RASA1 / Fold change vs veh, RASA1 / RFU, RB1 / Fold change vs veh, RB1 / RFU, PPFIA1 / Fold change vs veh, PPFIA1 / RFU, MAT2A / Fold change vs veh, MAT2A / RFU, CCT5 / Fold change vs veh, CCT5 / RFU, WDR92 / Fold change vs veh, WDR92 / RFU, CUX1 / Fold change vs veh, CUX1 / RFU, TTC7A / Fold change vs veh, TTC7A / RFU, TMEM135 / Fold change vs veh, TMEM135 / RFU, DEPTOR / Fold change vs veh, DEPTOR / RFU, CPM / Fold change vs veh, CPM / RFU, DNAJB6 / Fold change vs veh, DNAJB6 / RFU, CACNA2D3 / Fold change vs veh, CACNA2D3 / RFU, DTX4 / Fold change vs veh, DTX4 / RFU, TFCP2 / Fold change vs veh, TFCP2 / RFU, GMCL1 /// GMCL1P1 / Fold change vs veh, GMCL1 /// GMCL1P1 / RFU, AEBP2 / Fold change vs veh, AEBP2 / RFU, SNHG1 /// SNORD22 /// SNORD25 /// SNORD26 /// SNORD27 /// SNORD28 /// SNORD29 /// SNORD31 / Fold change vs veh, SNHG1 /// SNORD22 /// SNORD25 /// SNORD26 /// SNORD27 /// SNORD28 /// SNORD29 /// SNORD31 / Fold change (Aza/veh), C12orf56 (ProbeSet 11735607_a_at) / Fold change (ACY-1035/veh), C12orf56 (ProbeSet 11735607_a_at) / Fold change (Aza/veh), FGFR1OP (ProbeSet 11751329_s_at) / Fold change (ACY-1035/veh), FGFR1OP (ProbeSet 11751329_s_at) / Fold change (Aza/veh), VPS36 (ProbeSet 11739960_a_at) / Fold change (ACY-1035/veh), VPS36 (ProbeSet 11739960_a_at) / RFU SYPL1 (11715823_x_at) / Fold change /veh SYPL1 (11715823_x_at) / RFU IGFBP7 (11715501_s_at) / Fold change /veh IGFBP7 (11715501_s_at) / RFU REEP3 (11722064_at) / Fold change /veh REEP3 (11722064_at) / RFU IGLL1 (11728026_x_at) / Fold change /veh IGLL1 (11728026_x_at): dose or concentration left out as unconfirmed
Conditions: ProbeSet 11729173_a_at; LIST D

Nc1ncn([C@@H]2O[C@H](CO)[C@@H](O)[C@H]2O)c(=O)n1 [azacitidine]
Fold change vs veh, SKA2: 0.81
